# Source: the NIST ThermoML archive (doi:10.1007/s10765-005-8089-2)
# Numbers after ± are expanded uncertainties.
# Test: xn = mol fraction of the nth substance listed
# Conditions: Liquid, Falling or rolling sphere viscometry
smiles,measurement,setting,value
Cc1ccccc1 [toluene] + CCO,viscosity,"293.15 K, 100 kPa, x2 = 0.125",0.588 ± 0.013 mPa·s
same,viscosity,"293.15 K, 100 kPa, x2 = 0.25",0.609 ± 0.013 mPa·s
same,viscosity,"293.15 K, 100 kPa, x2 = 0.375",0.652 ± 0.014 mPa·s
same,viscosity,"293.15 K, 100 kPa, x2 = 0.5",0.71 ± 0.015 mPa·s
same,viscosity,"293.15 K, 100 kPa, x2 = 0.625",0.79 ± 0.017 mPa·s
same,viscosity,"293.15 K, 100 kPa, x2 = 0.75",0.899 ± 0.019 mPa·s
same,viscosity,"293.15 K, 100 kPa, x2 = 0.875",1.023 ± 0.022 mPa·s
same,viscosity,"293.15 K, 20000 kPa, x2 = 0.125",0.68 ± 0.015 mPa·s
same,viscosity,"293.15 K, 20000 kPa, x2 = 0.25",0.71 ± 0.015 mPa·s
same,viscosity,"293.15 K, 20000 kPa, x2 = 0.375",0.754 ± 0.016 mPa·s
same,viscosity,"293.15 K, 20000 kPa, x2 = 0.5",0.815 ± 0.017 mPa·s
same,viscosity,"293.15 K, 20000 kPa, x2 = 0.625",0.909 ± 0.019 mPa·s
same,viscosity,"293.15 K, 20000 kPa, x2 = 0.75",1.014 ± 0.022 mPa·s
same,viscosity,"293.15 K, 20000 kPa, x2 = 0.875",1.157 ± 0.025 mPa·s
same,viscosity,"293.15 K, 40000 kPa, x2 = 0.125",0.781 ± 0.017 mPa·s
same,viscosity,"293.15 K, 40000 kPa, x2 = 0.25",0.816 ± 0.017 mPa·s
same,viscosity,"293.15 K, 40000 kPa, x2 = 0.375",0.866 ± 0.019 mPa·s
same,viscosity,"293.15 K, 40000 kPa, x2 = 0.5",0.931 ± 0.02 mPa·s
same,viscosity,"293.15 K, 40000 kPa, x2 = 0.625",1.034 ± 0.022 mPa·s
same,viscosity,"293.15 K, 40000 kPa, x2 = 0.75",1.152 ± 0.025 mPa·s
same,viscosity,"293.15 K, 40000 kPa, x2 = 0.875",1.306 ± 0.028 mPa·s
same,viscosity,"293.15 K, 60000 kPa, x2 = 0.125",0.893 ± 0.019 mPa·s
same,viscosity,"293.15 K, 60000 kPa, x2 = 0.25",0.931 ± 0.02 mPa·s
same,viscosity,"293.15 K, 60000 kPa, x2 = 0.375",0.986 ± 0.021 mPa·s
same,viscosity,"293.15 K, 60000 kPa, x2 = 0.5",1.055 ± 0.023 mPa·s
same,viscosity,"293.15 K, 60000 kPa, x2 = 0.625",1.166 ± 0.025 mPa·s
same,viscosity,"293.15 K, 60000 kPa, x2 = 0.75",1.297 ± 0.028 mPa·s
same,viscosity,"293.15 K, 60000 kPa, x2 = 0.875",1.457 ± 0.031 mPa·s
same,viscosity,"293.15 K, 80000 kPa, x2 = 0.125",1.016 ± 0.022 mPa·s
same,viscosity,"293.15 K, 80000 kPa, x2 = 0.25",1.054 ± 0.023 mPa·s
same,viscosity,"293.15 K, 80000 kPa, x2 = 0.375",1.114 ± 0.024 mPa·s
same,viscosity,"293.15 K, 80000 kPa, x2 = 0.5",1.187 ± 0.025 mPa·s
same,viscosity,"293.15 K, 80000 kPa, x2 = 0.625",1.302 ± 0.028 mPa·s
same,viscosity,"293.15 K, 80000 kPa, x2 = 0.75",1.444 ± 0.031 mPa·s
same,viscosity,"293.15 K, 80000 kPa, x2 = 0.875",1.604 ± 0.034 mPa·s
same,viscosity,"293.15 K, 100000 kPa, x2 = 0.125",1.153 ± 0.025 mPa·s
same,viscosity,"293.15 K, 100000 kPa, x2 = 0.25",1.189 ± 0.025 mPa·s
same,viscosity,"293.15 K, 100000 kPa, x2 = 0.375",1.251 ± 0.027 mPa·s
same,viscosity,"293.15 K, 100000 kPa, x2 = 0.5",1.331 ± 0.029 mPa·s
same,viscosity,"293.15 K, 100000 kPa, x2 = 0.625",1.449 ± 0.031 mPa·s
same,viscosity,"293.15 K, 100000 kPa, x2 = 0.75",1.6 ± 0.034 mPa·s
same,viscosity,"293.15 K, 100000 kPa, x2 = 0.875",1.757 ± 0.038 mPa·s
same,viscosity,"313.15 K, 100 kPa, x2 = 0.125",0.462 ± 0.01 mPa·s
same,viscosity,"313.15 K, 100 kPa, x2 = 0.25",0.471 ± 0.01 mPa·s
same,viscosity,"313.15 K, 100 kPa, x2 = 0.375",0.49 ± 0.011 mPa·s
same,viscosity,"313.15 K, 100 kPa, x2 = 0.5",0.525 ± 0.011 mPa·s
same,viscosity,"313.15 K, 100 kPa, x2 = 0.625",0.574 ± 0.012 mPa·s
same,viscosity,"313.15 K, 100 kPa, x2 = 0.75",0.635 ± 0.014 mPa·s
same,viscosity,"313.15 K, 100 kPa, x2 = 0.875",0.717 ± 0.015 mPa·s
same,viscosity,"313.15 K, 20000 kPa, x2 = 0.125",0.538 ± 0.012 mPa·s
same,viscosity,"313.15 K, 20000 kPa, x2 = 0.25",0.549 ± 0.012 mPa·s
same,viscosity,"313.15 K, 20000 kPa, x2 = 0.375",0.573 ± 0.012 mPa·s
same,viscosity,"313.15 K, 20000 kPa, x2 = 0.5",0.611 ± 0.013 mPa·s
same,viscosity,"313.15 K, 20000 kPa, x2 = 0.625",0.662 ± 0.014 mPa·s
same,viscosity,"313.15 K, 20000 kPa, x2 = 0.75",0.729 ± 0.016 mPa·s
same,viscosity,"313.15 K, 20000 kPa, x2 = 0.875",0.825 ± 0.018 mPa·s
same,viscosity,"313.15 K, 40000 kPa, x2 = 0.125",0.619 ± 0.013 mPa·s
same,viscosity,"313.15 K, 40000 kPa, x2 = 0.25",0.632 ± 0.014 mPa·s
same,viscosity,"313.15 K, 40000 kPa, x2 = 0.375",0.658 ± 0.014 mPa·s
same,viscosity,"313.15 K, 40000 kPa, x2 = 0.5",0.699 ± 0.015 mPa·s
same,viscosity,"313.15 K, 40000 kPa, x2 = 0.625",0.757 ± 0.016 mPa·s
same,viscosity,"313.15 K, 40000 kPa, x2 = 0.75",0.83 ± 0.018 mPa·s
same,viscosity,"313.15 K, 40000 kPa, x2 = 0.875",0.932 ± 0.02 mPa·s
same,viscosity,"313.15 K, 60000 kPa, x2 = 0.125",0.705 ± 0.015 mPa·s
same,viscosity,"313.15 K, 60000 kPa, x2 = 0.25",0.718 ± 0.015 mPa·s
same,viscosity,"313.15 K, 60000 kPa, x2 = 0.375",0.747 ± 0.016 mPa·s
same,viscosity,"313.15 K, 60000 kPa, x2 = 0.5",0.792 ± 0.017 mPa·s
same,viscosity,"313.15 K, 60000 kPa, x2 = 0.625",0.854 ± 0.018 mPa·s
same,viscosity,"313.15 K, 60000 kPa, x2 = 0.75",0.933 ± 0.02 mPa·s
same,viscosity,"313.15 K, 60000 kPa, x2 = 0.875",1.039 ± 0.022 mPa·s
same,viscosity,"313.15 K, 80000 kPa, x2 = 0.125",0.796 ± 0.017 mPa·s
same,viscosity,"313.15 K, 80000 kPa, x2 = 0.25",0.81 ± 0.017 mPa·s
same,viscosity,"313.15 K, 80000 kPa, x2 = 0.375",0.841 ± 0.018 mPa·s
same,viscosity,"313.15 K, 80000 kPa, x2 = 0.5",0.889 ± 0.019 mPa·s
same,viscosity,"313.15 K, 80000 kPa, x2 = 0.625",0.955 ± 0.021 mPa·s
same,viscosity,"313.15 K, 80000 kPa, x2 = 0.75",1.038 ± 0.022 mPa·s
same,viscosity,"313.15 K, 80000 kPa, x2 = 0.875",1.147 ± 0.025 mPa·s
same,viscosity,"313.15 K, 100000 kPa, x2 = 0.125",0.893 ± 0.019 mPa·s
same,viscosity,"313.15 K, 100000 kPa, x2 = 0.25",0.907 ± 0.019 mPa·s
same,viscosity,"313.15 K, 100000 kPa, x2 = 0.375",0.94 ± 0.02 mPa·s
same,viscosity,"313.15 K, 100000 kPa, x2 = 0.5",0.991 ± 0.021 mPa·s
